Experimental data: US20260285850A1, “SUBSTITUTED OXAZOLIDINONES AND IMIDAZOLINONES AS HERBICIDES” (FMC CORPORATION, priority 2023, published 2026)

Columns and labels:
Assay type in all cases: in vivo
[1] = test system: barnyardgrass (Echinochloa crusgalli); experiment: Test B flooded paddy test, visual plant response rating 0-100; settings: 250 g ai/ha, Flood, applied to paddy water, evaluated after 13 days
How it was run: (§1)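 Plants were grown to the 2-leaf stage, then pots were flooded to 3 cm above the soil and test compounds were applied directly into the paddy water. Water depth was held there throughout; after 13 days in a greenhouse, injury was scored visually against untreated controls.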

[2] = test system: ducksalad (Heteranthera limosa); experiment: as above; settings: 250 g ai/ha, Flood, applied to paddy water, evaluated after 13 days
How it was run: as §1

[3] = test system: rice (Oryza sativa); experiment: as above; settings: 250 g ai/ha, Flood, applied to paddy water, evaluated after 13 days
How it was run: as §1

[4] = test system: sedge, umbrella (small-flower umbrella sedge, Cyperus difformis); experiment: as above; settings: 250 g ai/ha, Flood, applied to paddy water, evaluated after 13 days
How it was run: as §1

[5] = test system: soybean (Glycine max); experiment: Test A postemergence application, visual injury rating 0-100; settings: Postemergence, 10 days, 0 is no effect, 100 is complete control
How it was run: (§2)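 Compounds formulated in a non-phytotoxic solvent with surfactant are sprayed onto soil of freshly planted loam-sand pots ahead of emergence, or onto emerged plants 2-10 cm tall. After a 10-day greenhouse period, each species is scored visually for injury against untreated controls.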

[6] = test system: galium (catchweed bedstraw, Galium aparine); experiment: as above; settings: Postemergence, 10 days, 0 is no effect, 100 is complete control
How it was run: as §2

[7] = test system: kochia (Bassia scoparia); experiment: as above; settings: Postemergence, 10 days, 0 is no effect, 100 is complete control
How it was run: as §2

[8] = test system: oat, wild (wild oat, Avena fatua); experiment: as above; settings: Postemergence, 10 days, 0 is no effect, 100 is complete control
How it was run: as §2

[9] = test system: horseweed (Erigeron canadensis); experiment: as above; settings: Postemergence, 10 days, 0 is no effect, 100 is complete control
How it was run: as §2

[10] = test system: ryegrass, Italian (italian ryegrass, Lolium multiflorum); experiment: as above; settings: Postemergence, 10 days, 0 is no effect, 100 is complete control
How it was run: as §2

[11] = test system: green foxtail (Setaria viridis); experiment: as above; settings: Postemergence, 10 days, 0 is no effect, 100 is complete control
How it was run: as §2

[12] = test system: wheat (Triticum aestivum); experiment: as above; settings: Postemergence, 10 days, 0 is no effect, 100 is complete control
How it was run: as §2

[13] = test system: palmer (palmer amaranth, palmer pigweed, Amaranthus palmeri); experiment: as above; settings: Postemergence, 10 days, 0 is no effect, 100 is complete control
How it was run: as §2

[14] = test system: ragweed (common ragweed, Ambrosia artemisiifolia); experiment: as above; settings: Postemergence, 10 days, 0 is no effect, 100 is complete control
How it was run: as §2

[15] = test system: barnyardgrass (Echinochloa crus-galli); experiment: as above; settings: Postemergence, 10 days, 0 is no effect, 100 is complete control
How it was run: as §2

[16] = test system: blackgrass (Alopecurus myosuroides); experiment: as above; settings: Postemergence, 10 days, 0 is no effect, 100 is complete control
How it was run: as §2

[17] = test system: corn (Zea mays); experiment: as above; settings: Postemergence, 10 days, 0 is no effect, 100 is complete control
How it was run: as §2

[18] = test system: soybean (Glycine max); experiment: Test A preemergence soil spray, visual injury rating 0-100; settings: 10 days, 0 = no effect, 100 = complete control
How it was run: as §2

[19] = test system: kochia (Bassia scoparia); experiment: as above; settings: 10 days, 0 = no effect, 100 = complete control
How it was run: as §2

[20] = test system: oat, wild (wild oat, Avena fatua); experiment: as above; settings: 10 days, 0 = no effect, 100 = complete control
How it was run: as §2

[21] = test system: ryegrass, Italian (italian ryegrass, Lolium multiflorum); experiment: as above; settings: 10 days, 0 = no effect, 100 = complete control
How it was run: as §2

[22] = test system: green foxtail (Setaria viridis); experiment: as above; settings: 10 days, 0 = no effect, 100 = complete control
How it was run: as §2

[23] = test system: wheat (Triticum aestivum); experiment: as above; settings: 10 days, 0 = no effect, 100 = complete control
How it was run: as §2

[24] = test system: palmer (palmer amaranth, palmer pigweed, Amaranthus palmeri); experiment: as above; settings: 10 days, 0 = no effect, 100 = complete control
How it was run: as §2

[25] = test system: barnyardgrass (Echinochloa crus-galli); experiment: as above; settings: 10 days, 0 = no effect, 100 = complete control
How it was run: as §2

[26] = test system: blackgrass (Alopecurus myosuroides); experiment: as above; settings: 10 days, 0 = no effect, 100 = complete control
How it was run: as §2

[27] = test system: corn (Zea mays); experiment: as above; settings: 10 days, 0 = no effect, 100 = complete control
How it was run: as §2

COCCOC(=O)C1C=CC(NC(=O)C2(C)CN(c3cc(F)cc(F)c3)C(=O)O2)C1 (centres unmarked) [Compound 36]
Plant response rating, Barnyardgrass (0 to 100 scale, 0 is no effect and 100 is complete control) [1]: 60 | Plant response rating, Ducksalad (0 to 100 scale, 0 is no effect and 100 is complete control) [2]: 90 | Plant response rating, Rice (0 to 100 scale, 0 is no effect and 100 is complete control) [3]: 55 | Plant response rating, Sedge, Umbrella (0 to 100 scale, 0 is no effect and 100 is complete control) [4]: 95 | Soybean plant response rating (0 to 100 scale) ([5]; 125 g ai/ha): 70 | Soybean plant response rating (0 to 100 scale) ([5]; 500 g ai/ha): 80 | Galium plant response rating (0 to 100 scale) ([6]; 125 g ai/ha): 70 | Galium plant response rating (0 to 100 scale) ([6]; 500 g ai/ha): 80 | Kochia plant response rating (0 to 100 scale) ([7]; 125 g ai/ha): 60 | Kochia plant response rating (0 to 100 scale) ([7]; 500 g ai/ha): 70 | Oat, Wild plant response rating (0 to 100 scale) ([8]; 125 g ai/ha): 90 | Oat, Wild plant response rating (0 to 100 scale) ([8]; 500 g ai/ha): 100 | Horseweed plant response rating (0 to 100 scale) ([9]; 125 g ai/ha): 70 | Horseweed plant response rating (0 to 100 scale) ([9]; 500 g ai/ha): 90 | Ryegrass, Italian plant response rating (0 to 100 scale) ([10]; 125 g ai/ha): 90 | Ryegrass, Italian plant response rating (0 to 100 scale) ([10]; 500 g ai/ha): 80 | Foxtail, Green plant response rating (0 to 100 scale) ([11]; 125 g ai/ha): 80 | Foxtail, Green plant response rating (0 to 100 scale) ([11]; 500 g ai/ha): 90 | Wheat plant response rating (0 to 100 scale) ([12]; 125 g ai/ha): 70 | Wheat plant response rating (0 to 100 scale) ([12]; 500 g ai/ha): 80 | Amaranth, Palmer / Pigweed, Palmer plant response rating (0 to 100 scale) ([13]; 125 g ai/ha): 60 | Amaranth, Palmer / Pigweed, Palmer plant response rating (0 to 100 scale) ([13]; 500 g ai/ha): 100 | Ragweed plant response rating (0 to 100 scale) ([14]; 125 g ai/ha): 60 | Ragweed plant response rating (0 to 100 scale) ([14]; 500 g ai/ha): 80 | Barnyardgrass plant response rating (0 to 100 scale) ([15]; 125 g ai/ha): 100 | Barnyardgrass plant response rating (0 to 100 scale) ([15]; 500 g ai/ha): 100 | Blackgrass plant response rating (0 to 100 scale) ([16]; 125 g ai/ha): 100 | Blackgrass plant response rating (0 to 100 scale) ([16]; 500 g ai/ha): 100 | Corn plant response rating (0 to 100 scale) ([17]; 125 g ai/ha): 100 | Corn plant response rating (0 to 100 scale) ([17]; 500 g ai/ha): 100 | Soybean plant response rating (0 to 100 scale) ([18]; 125 g ai/ha): 60 | Soybean plant response rating (0 to 100 scale) ([18]; 500 g ai/ha): 80 | Kochia plant response rating (0 to 100 scale) ([19]; 125 g ai/ha): 90 | Kochia plant response rating (0 to 100 scale) ([19]; 500 g ai/ha): 100 | Oat, Wild plant response rating (0 to 100 scale) ([20]; 125 g ai/ha): 90 | Oat, Wild plant response rating (0 to 100 scale) ([20]; 500 g ai/ha): 90 | Ryegrass, Italian plant response rating (0 to 100 scale) ([21]; 125 g ai/ha): 100 | Ryegrass, Italian plant response rating (0 to 100 scale) ([21]; 500 g ai/ha): 100 | Foxtail, Green plant response rating (0 to 100 scale) ([22]; 125 g ai/ha): 100 | Foxtail, Green plant response rating (0 to 100 scale) ([22]; 500 g ai/ha): 100 | Wheat plant response rating (0 to 100 scale) ([23]; 125 g ai/ha): 90 | Wheat plant response rating (0 to 100 scale) ([23]; 500 g ai/ha): 100 | Amaranth, Palmer plant response rating (0 to 100 scale) ([24]; 125 g ai/ha): 80 | Amaranth, Palmer plant response rating (0 to 100 scale) ([24]; 500 g ai/ha): 100 | Barnyardgrass plant response rating (0 to 100 scale) ([25]; 125 g ai/ha): 100 | Barnyardgrass plant response rating (0 to 100 scale) ([25]; 500 g ai/ha): 100 | Blackgrass plant response rating (0 to 100 scale) ([26]; 125 g ai/ha): 80 | Blackgrass plant response rating (0 to 100 scale) ([26]; 500 g ai/ha): 100 | Corn plant response rating (0 to 100 scale) ([27]; 125 g ai/ha): 90 | Corn plant response rating (0 to 100 scale) ([27]; 500 g ai/ha): 90
